# System: dopamine (DA) neurons in the posterior VTA
# Test: VTA dopamine cell soma morphology (TH staining, STEREO INVESTIGATOR)
# Format: in vivo, rat
# Settings: 5 consecutive daily i.v. injections; morphine effect at 5.6 mg/Kg
# Description: DA morphology analysis: Fifteen min following the final CPP test session, rats were anesthetized with a mixture of ketamine/xylazine (85/10 mg/Kg, i.p., respectively) and perfused intracardially with 200 mL of 0.1 mol/L phosphate buffered saline (PBS) immediately followed by 300 mL of 4% paraformaldehyde in 0.1 mol/L PBS (pH=7.4). Brains were removed and post-fixed at 4° C. in the same fixative for 18 h. After post-fixation, brains were incubated in 30% sucrose at 4° C. for 2 days and sectioned coronally on a cryostat at 40 μm at the level of the posterior VTA (Spiga et al., 2003; Chu et al., 2008). After 2 consecutive washes in PBS, sections were blocked with 5% normal donkey serum (NDS) for 1 h, and incubated with the primary antibody anti-tyrosine-hydroxylase (anti-TH, 1: 3000 Cell Signaling Technology, Danvers, Mass.) overnight at 4° C. Slices were washed twice in PBS, re-blocked for 1 h, and incubated with the secondary antibody ALEXA594 (Life Technologies, Carlsbad, Calif.), for 2 h. Sections were washed, mounted on slides with PROLONG GOLD (Life Technologies), and stored at 4° C. Posterior VTA sections were verified according to the atlas of Paxinos and Watson (2007). Images of the parabrachial pigmented area (PBP) and the paranigral area (PN) subregions of the posterior VTA were captured in z-stacks (1 μm) with at least 5 tissue slices per rat and 5-6 rats per drug group. STEREO INVESTIGATOR software (MBF Bioscience; Williston, Va.) was used to quantify soma size using the optical fractionator probe to survey a sample of neurons in each z-stack while the nucleator probe was used to measure the cross-sectional area and volume of each cell soma. The optical fractionator probe was used to quantify the number of cells in a particular section of tissue through systematic random sampling. Between 12 and 16 regions were surveyed per z-stack. While the optical fractionator probe utilized stereological techniques to select a random sample to be analyzed, the nucleator probe measured the cross-sectional area of each neuron. Therefore, the simultaneous use of these probes systematically assessed neurons in the PBP and PN regions of the VTA in each subject, and provided morphological data for these cells including surface area (μm^2) and volume (μm^3). Cell somas were eligible to be quantified if they were located within the counting frame and/or if the soma touched either of the nucleator frame's green borders. Neurons were ineligible if located outside the counting frame and/or if their soma touched the frame's red borders. After determining this optimum depth, the center of the soma was located and analyzed by the nucleator probe. To eliminate bias associated with tissue orientation, nucleator rays were randomly arranged between quantifications. […]
structure (smiles),measurement,value
"NC(=O)CNC(=O)[C@@H]1CCC(=O)NCCCC[C@@H](NC(=O)[C@@H](N)Cc2ccc(O)cc2)C(=O)N[C@@H](Cc2c[nH]c3ccccc23)C(=O)N[C@@H](Cc2ccccc2)C(=O)N1 [ZH853, Tyr-c[D-Lys-Trp-Phe-Glu]-Gly-NH2]",surface area of TH-positive somas in pVTA,did not alter
same,volume of TH-positive somas in pVTA,did not alter
